The values below come from patent publication US20110098309A1, “METHODS OF INHIBITING THE FORMATION OF AMYLOID-BETA DIFFUSABLE LIGANDS USING ACYLHYDRAZIDE COMPOUNDS” (priority 2007, published 2011).

In this assay the target is Aβ1-42 (Homo sapiens, UniProt P05067). The experiment in a line: FRET assay of Aβ1-42 oligomer (ADDL) assembly inhibition. In kind it is biochemical. The conditions noted are these: 0.2 μM FITC-Aβ(1-42) and 0.8 μM Aβ(1-42), 37° C., six concentrations from about 10 μM to about 0.03 μM. An excerpt: Fluorescence (or Förster) Resonance Energy Transfer (FRET) is a distance-dependent, non-radiative transfer of energy in which the de-excitation of one fluorophore (donor) is coupled to excitation of another fluorophore (acceptor). FRET occurs if (1) the quantum of energy emitted by a donor fluorophore corresponds to an acceptor fluorophore's excitation energy, (2) the orientations of donor and acceptor transition dipoles are nearly parallel and (3) the donor fluorescent emission spectrum overlaps the acceptor absorption spectrum.
In this assay, assembly of Aβ1-42 oligomer formation is monitored by FRET using N-terminal conjugates of fluorescein-Aβ1-42 as both the donor and acceptor fluorophore (fluorescein-fluorescein Ro˜45 Å). […] Inhibition of Aβ1-42 assembly is observed as the absence or attenuation of fluorescein quenching.
FRET and FP assays are performed in 384-well Corning Non-Binding Surface, black, opaque microtiter plates, and the assay buffer consists of 25 mM MOPS-Tris (pH 8.0) with 100 mM MgCl2. The assay volume, containing 0.2 μM FITC-Aβ(1-42) and 0.8 μM Aβ(1-42), is 50 μl and the temperature is 37° C. […] Kinetic traces are collected by recording fluorescence intensity and polarization readings every five minutes over about a three hour time course. […] Positive control reactions contain all buffer components in the absence of added small molecule or antibody reagents. To test for ADDL assembly inhibition, the compound was incubated with the peptide mixture at six concentrations from about 10 μM decreasing to about 0.03 μM.

SMILES strings stand for the structures.

Aβ1-42, sequence (P05067 672-713 limits assumed): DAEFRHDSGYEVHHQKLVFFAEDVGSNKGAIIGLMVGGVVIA

What is called IC50 is the concentration at which inhibition is half-maximal. The molecule `O=C(N/N=C/c1cc(F)cc(F)c1O)c1ccccc1O` [Compound 101, N′-(3,5-difluoro-2-hydroxybenzylidene)-2-hydroxybenzohydrazide] returned a half-inhibitory concentration (IC50) of 33.4 µM.
Take `C/C(CC(N)=O)=N\NC(=O)c1ccccc1O` [Compound 32, 3-(2-(2-hydroxybenzoyl)hydrazono)butanamide]: it took 35 µM to reach half-maximal inhibition (IC50). This IC50 and that of the molecule before are within 1.5-fold of each other.
Take `Cc1cccc(C(=O)N/N=C(/CC(=O)c2cccs2)C(F)(F)F)c1O` [Compound 25, 2-hydroxy-3-methyl-N′-(1,1,1-trifluoro-4-oxo-4-(thiophen-2-yl)butan-2-ylidene)benzohydrazide]: the IC50 is 16.3 µM.
The figure for `O=C(N/N=C/c1oc2ccc([N+](=O)[O-])cc2c1O)c1ccccc1O` [Compound 88, 2-hydroxy-N′-((3-hydroxy-5-nitro-benzofuran-2-yl)methylene) benzohydrazide] is 20.4 µM.
The molecule `O=C(N/N=C/c1ccc(N2CCOCC2)cc1O)c1ccccc1O` [Compound 87, 2-hydroxy-N′-(2-hydroxy-4-morpholino-benzylidene)-benzohydrazide] registered an IC50 of 18.3 µM.
In the case of `O=C(C/C(=N/NC(=O)c1c(F)cccc1F)C(F)(F)F)c1cccs1` [Compound 35, 2,6-difluoro-N′-(1,1,1-trifluoro-4-oxo-4-(thiophen-2-yl)butan-2-ylidene)benzohydrazide], the IC50 came to 41.2 µM.
The molecule `COc1cccc(O)c1/C=N/NC(=O)c1ccccc1O` [Compound 55, 2-hydroxy-N′-(2-hydroxy-6-methoxy-benzylidene)benzohydrazide] had a concentration for half-maximal inhibition (IC50) of 5.3 µM.
Regarding `COc1ccc(O)c(/C=N/NC(=O)c2ccc(Cl)cc2O)c1` [Compound 51, 4-chloro-2-hydroxy-N′-(2-hydroxy-5-methoxy-benzylidene)benzohydrazide], the concentration for half-maximal inhibition (IC50) was determined as 4.2 µM. The IC50 values of the last two molecules are within 1.5-fold of each other.
Next, `COc1ccc(O)c(/C=N/NC(=O)c2ccccc2NS(=O)(=O)c2ccc(Cl)cc2)c1` [Compound 71, 4-chloro-N-(2-(2-(2-hydroxy-5-methoxy-benzylidene)hydrazine-carbonyl)phenyl)benzene-sulfonamide]: 9.7 µM; `COc1ccc(O)c(/C=N/NC(=O)c2cc(Cl)ccc2O)c1` [Compound 84, 5-chloro-2-hydroxy-N′-(2-hydroxy-5-methoxy-benzylidene)benzohydrazide]: 15.5 µM; `Cc1nnsc1C(=O)N/N=C/c1cc(Cl)ccc1O` [Compound 111, N′-(5-chloro-2-hydroxybenzylidene)-4-methyl-1,2,3-thiadiazole-5-carbohydrazide]: 42.9 µM.
The figure for `CCOc1ccc(O)c(/C=N/NC(=O)c2ccccc2O)c1` [Compound 85, N′-(5-ethoxy-2-hydroxy-benzylidene)-2-hydroxy-benzohydrazide] is 16 µM; for `COc1ccc(O)c(/C=N/NC(=O)c2ccccc2N)c1` [Compound 110, 2-amino-N′-(2-hydroxy-5-methoxybenzylidene)benzohydrazide] it is 42.3 µM; for `O=C(N/N=C/c1cc(OC(F)(F)F)ccc1O)c1ccccc1O` [Compound 57, 2-hydroxy-N′-(2-hydroxy-5-(trifluoro-methoxy)benzylidene)benzohydrazide] it is 6.3 µM.
As for `O=C(C/C(=N/NC(=O)c1cccc2cc[nH]c12)C(F)(F)F)c1cccs1` [Compound 22, N′-(1,1,1-trifluoro-4-oxo-4-(thiophen-2-yl)butan-2-ylidene)-1H-indole-7-carbohydrazide], half-maximal inhibition (IC50) required 13.5 µM.
The figure for `O=C(C/C(=N/NC(=O)c1cc(Cl)ccc1O)C(F)(F)F)c1cccs1` [Compound 20, 5-chloro-2-hydroxy-N′-(1,1,1-trifluoro-4-oxo-4-(thiophen-2-yl)butan-2-ylidene)benzohydrazide] is 11.9 µM.
Consider `COc1ccc(O)c(/C=N/NC(=O)c2cc([N+](=O)[O-])ccc2O)c1` [Compound 104, 2-hydroxy-N′-(2-hydroxy-5-methoxybenzylidene)-5-nitrobenzohydrazide], for which the IC50 turned out to be 35.1 µM.
